# Values quoted from earlier work as cited in patent publication US9198988B2, “Nanoparticulate manganese MRI contrast agents” (Kent State University, priority 2011, dated 2015).
# What was measured:
# [1] = commercial MRI contrast agents
# [2] = commercial MRI contrast agents; remark: listed apart in the source
LogKGdL (stability constant) [2],SMILES,r1 (relaxivity) [1] [mM⁻¹ s⁻¹]
20.8,O=C([O-])CN1CCN(CC(=O)[O-])CCN([C@H](CO)[C@H](O)CO)CCN(CC(=O)[O-])CC1.[Gd+3] (racemic) [Gadovist ®],5.3
25.3,CNC[C@H](O)[C@@H](O)[C@H](O)[C@H](O)CO.O=C([O-])CN1CCN(CC(=O)[O-])CCN(CC(=O)O)CCN(CC(=O)[O-])CC1.[Gd+3] [Dotarem ®],4.2
22.2,CNC[C@H](O)[C@@H](O)[C@H](O)[C@H](O)CO.CNC[C@H](O)[C@@H](O)[C@H](O)[C@H](O)CO.O=C([O-])CN(CCN(CC(=O)[O-])CC(=O)O)CCN(CC(=O)[O-])CC(=O)O.[Gd+3] [Magnevist ®],4.3
18.4,CNC[C@H](O)[C@@H](O)[C@H](O)[C@H](O)CO.CNC[C@H](O)[C@@H](O)[C@H](O)[C@H](O)CO.O=C([O-])CN(CCN(CC(=O)[O-])CC(=O)O)CCN(CC(=O)O)C(COCc1ccccc1)C(=O)[O-].[Gd+3] (centres unmarked) [MultiHance],6.7
16.8,CNC(=O)CN(CCN(CCN(CC(=O)[O-])CC(=O)NC)CC(=O)[O-])CC(=O)[O-].[Gd+3] [Omniscan ®],4.6
16.8,COCCNC(=O)CN(CCN(CCN(CC(=O)[O-])CC(=O)NCCOC)CC(=O)[O-])CC(=O)[O-].[Gd+3] [OptiMARK],5.2
23.5,CCOc1ccc(CC(CN(CCN(CC(=O)[O-])CC(=O)[O-])CC(=O)[O-])N(CC(=O)[O-])CC(=O)[O-])cc1.[Gd+3].[Na+].[Na+] (centres unmarked) [Primovist],7.3
–,CC(O)CN1CCN(CC(=O)[O-])CCN(CC(=O)[O-])CCN(CC(=O)[O-])CC1.[Gd+3] (centres unmarked) [ProHance ®],4.4
23.2,O=C([O-])CN(CCN(CC(=O)[O-])CC(COP(=O)([O-])OC1CCC(c2ccccc2)(c2ccccc2)CC1)N(CC(=O)[O-])CC(=O)[O-])CC(=O)[O-].[Gd+3].[Na+].[Na+].[Na+] (centres unmarked) [Vasovist],19
